Patent publication US7649012B2, “Compounds, pharmaceutical compositions containing same, and methods of use for same” (FASgen, Inc., priority 2002, dated 2010)
Values after ≈ are worked out from the molar mass of the structure shown. Where two headings read alike, the source gives them in different places.

Tests used:
Type in all cases: cell-based
[1] = test system: Pseudomonas aeruginosa (ATCC # 27853); experiment: Broth microdilution MIC; details: for PSAE/MH(MIC): Mueller Hinton Broth; for PSAE/Tsoy(MIC): Trypticase Soy Broth
Procedure: (§1) A broth microdilution assay is used to assess the antimicrobial activity of the compounds. […] Microorganisms tested include Staphylococcus aureus (ATCC # 29213), Enterococcus faecalis (ATCC # 29212), Pseudomonas aeruginosa (ATCC # 27853), and Escherichia coli (ATCC # 25922). The assay is performed in two growth media, Mueller Hinton Broth and Trypticase Soy Broth. […] Colonies are suspended in sterile broth so that the turbidity matches the turbidity of a 0.5 McFarland standard. The inoculum is diluted 1:10 in sterile broth (Mueller Hinton or Trypticase soy) and 195 ul is dispensed per well of a 96-well plate. The compounds to be tested, dissolved in DMSO, are added to the wells in 5 ul volume at the following concentrations: 25, 12.5, 6.25, 3.125, 1.56 and 0.78 ug/ml in duplicate. Additional concentrations are tested if required. 5 ul of DMSO added to duplicate wells are the vehicle control. Serial dilutions of positive control compounds, vancomycin (E. faecalis and S. aureus) and tobramycin (E. coli and P. aeruginosa), are included in each run. After 24 hours of incubation at 37° C., plates are read at OD600 on a Molecular Devices SpectraMax Plus Spectrophotometer. Average OD600 values are computed using SOFTmax Pro Software (Molecular Devices) and MIC values are determined by linear regression analysis using Prism version 3.02 (Graph Pad Software, San Diego).

[2] = test system: Staphylococcus aureus (ATCC # 29213); experiment: Broth microdilution MIC; details: for MIC: Staphylococcus aureus, ATCC29213
Procedure: as §1

[3] = test system: MCF-7 human breast cancer cells; experiment: XTT cytotoxicity assay; details: MCF7, MCF-7, 72 hours, some cells marked (M)
Procedure: The XTT assay is a non-radioactive alternative for the [^51 Cr] release cytotoxicity assay. XTT is a tetrazolium salt that is reduced to a formazan dye only by metabolically active, viable cells. The reduction of XTT is measured spectrophotometrically as OD490-OD650.
To measure the cytotoxicity of specific compounds against cancer cells, 9×10^3 MCF-7 human breast cancer cells, obtained from the American Type Culture Collection are plated per well in 96 well plates in DMEM medium with 10% fetal bovine serum, insulin, penicillin, and streptomycin. Following overnight culture at 37° C. and 5% CO2, the compounds to be tested, dissolved in DMSO, are added to the wells in 1 μl volume at the following concentrations: 80, 40, 20, 10, 5, 2.5, 1.25, and 0.625 μg/ml in triplicate. Additional concentrations are tested if required. 1 μl of DMSO is added to triplicate wells are the vehicle control. C75 is run at 40, 20, […], and 5 μg/ml in triplicate as positive controls. After 72 hours of incubation, cells are incubated for 4 hours with the XTT reagent as per manufacturer's instructions (Cell Proliferation Kit II (XTT) Roche). Plates are read at OD490 and OD650 on a Molecular Devices SpectraMax Plus Spectrophotometer. Three wells containing the XTT reagent without cells serve as the plate blank. XTT data are reported as OD490-OD650-Averages and standard error of the mean are computed using SOFTmax Pro software (Molecular Dynamics).
The IC50 for the compounds is defined as the concentration of drug leading to a 50% reduction in OD490-OD650 compared to controls. The OD490-OD650 are computed by the SOFTmax PRO software (Molecular Devices) for each compound concentration. IC50 is calculated by linear regression, plotting the FAS activity as percent of control versus drug concentrations. Linear regression, best-fit line, r^2, and 95% confidence intervals are determined using Prism Version 3.0 (Graph Pad Software).

[4] = test system: MCF-7 human breast cancer cells; experiment: Crystal violet cell growth assay; details: MCF7, MCF-7, 72 hours, read-out: Cr. Violet(IC50)
Procedure: The crystal violet assay measure cell growth but not cytotoxicity. This assay employs crystal violet staining of fixed cells in 96-well plates with subsequent solubilization and measurement of OD490 on a spectrophotometer. The OD490 corresponds to cell growth per unit time measured. Cells are treated with the compounds of interest or vehicle controls and IC50 for each compound is computed.
To measure the cytotoxicity of specific compounds against cancer cells, 5×10^4 MCF-7 human breast cancer cells, obtained from the American Type Culture Collection are plated per well in 24 well plates in DMEM medium with 10% fetal bovine serum, penicillin, and streptomycin. Following overnight culture at 37° C. and 5% CO2, the compounds to be tested, dissolved in DMSO, are added to the wells in 1 μl volume at the following concentrations: 50, 40, 30, 20, and 10 μg/ml in triplicate. Additional concentrations are tested if required. 1 μl of DMSO is added to triplicate wells are the vehicle control. C75 is run at 10, and 5 μg/ml in triplicate as positive controls.
After 72 hours of incubation, cells are stained with 0.5 ml of Crystal Violet stain (0.5% in 25% methanol) in each well. After 10 minutes, wells are rinsed, air dried, and then solubilized with 0.5 ml 10% sodium dodecylsulfate with shaking for 2 hours.

[5] = test system: Escherichia coli (ATCC # 25922); experiment: Broth microdilution MIC; details: for MIC: Escherichia coli, ATCC25922
Procedure: as §1

[6] = test system: Enterococcus faecalis (ATCC # 29212); experiment: Broth microdilution MIC; details: for MIC: Enterococcus faecalis, ATCC29212
Procedure: as §1

[7] = Mueller Hinton Broth, read-out: SA/MH(MIC)
[8] = Trypticase Soy Broth, read-out: SA/Tsoy(MIC)
[9] = Mueller Hinton Broth, read-out: EF/MH(MIC)
[10] = Trypticase Soy Broth, read-out: EF/Tsoy(MIC)

Row | SMILES | PSAE/MH(MIC) [1] | PSAE/Tsoy(MIC) [1] | MIC [2, 7] | MIC [2, 8] | IC50 [3] | IC50 [4] | Ecoli/MH(MIC) ([5]; Mueller Hinton Broth) | Ecoli/Tsoy(MIC) ([5]; Trypticase Soy Broth) | MIC [6, 9] | MIC [6, 10] | MIC ([5]; Trypticase Soy Broth, read-out: Ecoli/Tsoy(MIC)) | MIC ([5]; Mueller Hinton Broth, read-out: Ecoli/MH(MIC)) | EF/MH(MIC) ([6]; Mueller Hinton Broth) | EF/Tsoy(MIC) ([6]; Trypticase Soy Broth) | SA/MH(MIC) ([2]; Mueller Hinton Broth)
1 | CCCCCCCC[C@@]1(C)SC(=O)C(C(=O)C(F)(F)F)=C1O (racemic) | Neg | Neg | 54 µg/mL (≈ 160 µM) | 65 µg/mL (≈ 192 µM) | 18.4 ± 2.7 µg/mL (≈ 54.4 µM) | 45.3 µg/mL (≈ 134 µM) | – | – | – | – | – | – | – | – | –
2 | CCCCCCCCC1(C)SC(=O)C(C(C)O)=C1O (centres unmarked) | Neg | Neg | 53.1 ± 0.5 µg/mL (≈ 185 µM) | 12 ± 0.5 µg/mL (≈ 41.9 µM) | 23.9 ± 2.9 µg/mL (≈ 83.4 µM) | 19.5 µg/mL (≈ 68.1 µM) | Neg | Neg | 66 µg/mL (≈ 230 µM) | 21 µg/mL (≈ 73.3 µM) | – | – | – | – | –
3 | CCCCCC[C@@]1(C)SC(=O)C=C1OCCCCCl (racemic) | Neg | Neg | 164 µg/mL (≈ 538 µM) | 50 µg/mL (≈ 164 µM) | 20.8 ± 0.9 µg/mL (≈ 68.2 µM) | 16.3 µg/mL (≈ 53.5 µM) | Neg | Neg | 117 µg/mL (≈ 384 µM) | 165 µg/mL (≈ 541 µM) | – | – | – | – | –
4 | CCCCCC[C@@]1(C)SC(=O)C=C1OCC(=O)NCCCBr (racemic) | Neg | Neg | 147 µg/mL (≈ 375 µM) | 237 µg/mL (≈ 604 µM) | 21.2 ± 1.1 µg/mL (≈ 54 µM) | 12.6 ± 3.7 µg/mL (≈ 32.1 µM) | Neg | – | 99 µg/mL (≈ 252 µM) | 121 µg/mL (≈ 308 µM) | 293 µg/mL (≈ 747 µM) | – | – | – | –
5 | CCCCCCCCC1(C)SC(=O)C(C)=C1OC (centres unmarked) | Neg | Neg | 132 µg/mL (≈ 488 µM) | 108 µg/mL (≈ 399 µM) | 17.3 ± 5.9 µg/mL (≈ 64 µM) | 15.9 ± 1.9 µg/mL (≈ 58.8 µM) | Neg | Neg | 208 µg/mL (≈ 769 µM) | 94 µg/mL (≈ 348 µM) | – | – | – | – | –
6 | CCCCCCCC[C@@]1(C)SC(=O)C=C1OC(=O)CC (racemic) | Neg | Neg | 88 µg/mL (≈ 295 µM) | 62 µg/mL (≈ 208 µM) | 26.8 ± 0.6 µg/mL (≈ 89.8 µM) | 38.6 µg/mL (≈ 129 µM) | Neg | Neg | 102 µg/mL (≈ 342 µM) | 147 µg/mL (≈ 493 µM) | – | – | – | – | –
7 | CCCCCC[C@@]1(C)SC(=O)C=C1OCC(=O)NCC(=O)OC (racemic) | Neg | Neg | 69 µg/mL (≈ 201 µM) | 111 µg/mL (≈ 323 µM) | 40.5 ± 5.1 µg/mL (≈ 118 µM) | 32.5 ± 11.7 µg/mL (≈ 94.6 µM) | – | Neg | – | – | – | 156 µg/mL (≈ 454 µM) | Neg | Neg | –
8 | CCCCCCCC[C@@]1(C)SC(=O)C=C1OCC(=O)O | Neg | Neg | 98 µg/mL (≈ 326 µM) | 60 µg/mL (≈ 200 µM) | 50.3 ± 2.8 µg/mL (≈ 167 µM) | 33.7 µg/mL (≈ 112 µM) | Neg | Neg | 77 µg/mL (≈ 256 µM) | 164 µg/mL (≈ 546 µM) | – | – | – | – | –
9 | C=CCC1(C)C(=O)S[C@](C)(CCCCCCCC)C1=O (mixture of isomers) | Neg | Neg | – | 97 µg/mL | 50.4 ± 4.7 µg/mL | > 50 µg/mL | Neg | Neg | 133 µg/mL | 91 µg/mL | – | – | – | – | Neg
